The values that follow come from patent US20260062412A1, “NITROGEN-CONTAINING HETEROCYCLIC COMPOUND HAVING MYT1 INHIBITORY ACTIVITY” (CHUGAI SEIYAKU KABUSHIKI KAISHA, priority 2023, published 2026).

This experiment has as its target MYT1 protein (Homo sapiens (Human), UniProt Q99640). Briefly: Test for binding to ATP binding site of MYT1 (Kinase Tracer 178 / Eu-Anti-GST antibody TR-FRET). The settings on record: ATP binding site of MYT1, 30 minutes at room temperature. The method, then: The binding capacity of each compound to the ATP binding site of MYT1 Kinase protein was evaluated. 5× Kinase Buffer A (manufactured by Thermo Fisher Scientific Inc., PV3189) was diluted to 5 times with Milli-Q water, thereby preparing 1× Kinase Buffer. Using 1× Kinase Buffer, MYT1 protein (manufactured by Carna Biosciences, Inc.) was diluted to a concentration of 0.005 μM and Eu-Anti-GST Antibody was diluted to a concentration of 1 μM. […] To a 96 well-plate, 2.5 μL of a compound diluted with DMSO was added. […] The mixture was well mixed and then allowed to stand at room temperature for 30 minutes. Thereafter, fluorescence wavelengths of 665 nm and 615 nm generated by irradiation with excitation light of 340 nm were detected using Envision (manufactured by PerkinElmer). The proportion of Tracer bound to MYT1 protein was calculated for every condition by dividing the intensity at the fluorescence wavelength of 665 nm by the intensity at the fluorescence wavelength of 615 nm.

Chain of MYT1 protein (Q99640 whole entry): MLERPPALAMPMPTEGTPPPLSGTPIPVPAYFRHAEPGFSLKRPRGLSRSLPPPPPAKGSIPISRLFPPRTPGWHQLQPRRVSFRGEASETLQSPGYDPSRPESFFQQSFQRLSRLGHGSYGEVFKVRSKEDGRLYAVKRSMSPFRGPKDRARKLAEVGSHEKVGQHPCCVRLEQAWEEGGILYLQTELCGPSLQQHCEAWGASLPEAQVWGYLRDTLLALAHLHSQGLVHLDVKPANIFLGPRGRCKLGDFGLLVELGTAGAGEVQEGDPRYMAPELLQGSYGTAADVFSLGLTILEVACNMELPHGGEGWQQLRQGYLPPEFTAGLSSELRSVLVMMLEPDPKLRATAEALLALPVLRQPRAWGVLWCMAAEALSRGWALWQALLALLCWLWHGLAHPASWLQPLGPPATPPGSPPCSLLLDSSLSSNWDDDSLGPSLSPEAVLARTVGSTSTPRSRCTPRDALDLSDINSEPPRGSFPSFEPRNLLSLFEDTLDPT

What is called IC50 is the concentration that gives 50% inhibition. Low readings indicate greater potency in that assay, high ones weaker potency in that assay. `Nc1c(-c2ccc(F)c3[nH]ncc23)c2cc(Br)c3c(Cl)cccc3c2[nH]c1=O` [Compound B16, 3-Amino-6-bromo-7-chloro-4-(7-fluoro-1H-indazol-4-yl)-1H-benzo[h]quinolin-2-one] registered an IC50 of 0.046 µM. The result for `Nc1c(-c2ccc(F)c3[nH]ncc23)c2cc(C3CC3)c3c(Cl)cccc3c2[nH]c1=O` [Compound B17, 3-Amino-7-chloro-6-cyclopropyl-4-(7-fluoro-1H-indazol-4-yl)-1H-benzo[h]quinolin-2-one] reads 0.015 µM; that for `Nc1c(-c2ccc(F)c3[nH]ncc23)c2ccc3c(Cl)cccc3c2[nH]c1=O` [Compound B18, 3-Amino-7-chloro-4-(7-fluoro-1H-indazol-4-yl)-1H-benzo[h]quinolin-2-one], 0.023 µM. `Cc1cc2c(-c3ccc(F)c4[nH]ncc34)c(N)c(=O)[nH]c2c2cccc(Cl)c12` [Compound B19, 3-Amino-7-chloro-4-(7-fluoro-1H-indazol-4-yl)-6-methyl-1H-benzo[h]quinolin-2-one] showed an IC50 of 0.022 µM. `Nc1c(-c2ccc(F)c3[nH]ncc23)c2cc(C3CC3)c3cccc(Cl)c3c2[nH]c1=O` [Compound B20, 3-Amino-10-chloro-6-cyclopropyl-4-(7-fluoro-1H-indazol-4-yl)-1H-benzo[h]quinolin-2-one]: the IC50 is 0.042 µM. `Nc1c(-c2ccc(F)c3[nH]ncc23)c2cc(Br)c3ccccc3c2[nH]c1=O` [Compound B21, 3-Amino-6-bromo-4-(7-fluoro-1H-indazol-4-yl)-1H-benzo[h]quinolin-2-one] had an IC50 of 0.02 µM. As for `Nc1c(-c2ccc(F)c3[nH]ncc23)c2cc(C3CCCC3)c3ccccc3c2[nH]c1=O` [Compound B25, 3-Amino-6-cyclopentyl-4-(7-fluoro-1H-indazol-4-yl)-1H-benzo[h]quinolin-2-one], the IC50 was 0.024 µM. For the compound `CC#Cc1cc2c(-c3ccc(F)c4[nH]ncc34)c(N)c(=O)[nH]c2c2ccccc12` [Compound B28, 3-Amino-4-(7-fluoro-1H-indazol-4-yl)-6-prop-1-inyl-1H-benzo[h]quinolin-2-one], the IC50 is 0.022 µM. Compound `Cn1cc(-c2cc3c(-c4ccc(F)c5[nH]ncc45)c(N)c(=O)[nH]c3c3ccccc23)cn1` [Compound B29, 3-Amino-4-(7-fluoro-1H-indazol-4-yl)-6-(1-methylpyrazole-4-yl)-1H-benzo[h]quinolin-2-one] returned an IC50 of 0.0092 µM. `C=Cc1cc2c(-c3ccc(F)c4[nH]ncc34)c(N)c(=O)[nH]c2c2ccccc12` [Compound B30, 3-Amino-6-ethenyl-4-(7-fluoro-1H-indazol-4-yl)-1H-benzo[h]quinolin-2-one] yielded an IC50 of 0.015 µM.

As for `Cn1c(=O)c(N)c(-c2ccc(F)c3[nH]ncc23)c2cc(Br)c3ccccc3c21` [Compound B33, 3-Amino-6-bromo-4-(7-fluoro-1H-indazol-4-yl)-1-methylbenzo[h]quinolin-2-one], the IC50 stood at 2.6 µM. On to `Nc1c(-c2ccc(Cl)c3[nH]ncc23)c2cc(Br)c3ccccc3c2[nH]c1=O` [Compound B36, 3-Amino-6-bromo-4-(7-chloro-1H-indazol-4-yl)-1H-benzo[h]quinolin-2-one], for which the IC50 stood at 0.014 µM. `CCc1cc2c(-c3ccc(Cl)c4[nH]ncc34)c(N)c(=O)[nH]c2c2ccccc12` [Compound B38, 3-Amino-4-(7-chloro-1H-indazol-4-yl)-6-ethyl-1H-benzo[h]quinolin-2-one] came in with an IC50 of 0.0046 µM. `Nc1c(-c2ccc(Cl)c3[nH]ncc23)c2cc(C3CCC3)c3ccccc3c2[nH]c1=O` [Compound B39, 3-Amino-4-(7-chloro-1H-indazol-4-yl)-6-cyclobutyl-1H-benzo[h]quinolin-2-one]: the IC50 came to 0.01 µM. The result for `Nc1c(-c2ccc(Cl)c3[nH]ncc23)c2cc(C3CCCC3)c3ccccc3c2[nH]c1=O` [Compound B40, 3-Amino-4-(7-chloro-1H-indazol-4-yl)-6-cyclopentyl-1H-benzo[h]quinolin-2-one] reads 0.013 µM; that for `N#Cc1cc2c(-c3ccc(Cl)c4[nH]ncc34)c(N)c(=O)[nH]c2c2ccccc12` [Compound B41, 3-Amino-4-(7-chloro-1H-indazol-4-yl)-2-oxo-1H-benzo[h]quinoline-6-carbonitrile], 0.014 µM.

Take `N#Cc1cc2c(-c3ccc(C#N)c4[nH]ncc34)c(N)c(=O)[nH]c2c2ccccc12` [Compound B42, 3-Amino-4-(7-cyano-1H-indazol-4-yl)-2-oxo-1H-benzo[h]quinoline-6-carbonitrile]: the IC50 stood at 0.25 µM.

`Cc1cc2c(-c3ccc(Cl)c4[nH]ncc34)c(N)c(=O)[nH]c2c2ccccc12` [Compound B43, 3-Amino-4-(7-chloro-1H-indazol-4-yl)-6-methyl-1H-benzo[h]quinolin-2-one]: the IC50 was 0.015 µM. With `Nc1c(-c2ccc(Cl)c3[nH]ncc23)c2ccc3ccccc3c2[nH]c1=O` [Compound B44, 3-Amino-4-(7-chloro-1H-indazol-4-yl)-1H-benzo[h]quinolin-2-one], the IC50 stood at 0.014 µM. In the case of `Nc1c(-c2ccc(Cl)c3[nH]ncc23)c2cc(Cl)c3ccccc3c2[nH]c1=O` [Compound B45, 3-Amino-6-chloro-4-(7-chloro-1H-indazol-4-yl)-1H-benzo[h]quinolin-2-one], the IC50 turned out to be 0.033 µM. Consider `Cn1ncc2c(-c3c(N)c(=O)[nH]c4c3cc(Br)c3ncccc34)ccc(F)c21` [Compound C2, 3-Amino-6-bromo-4-(7-fluoro-1-methylindazol-4-yl)-1H-1,7-phenanthrolin-2-one], for which the IC50 was found to be 1.1 µM. In the case of `Nc1c(-c2ccc(F)c3[nH]ncc23)c2cc(O)c3ncccc3c2[nH]c1=O` [Compound C3, 3-Amino-4-(7-fluoro-1H-indazol-4-yl)-6-hydroxy-1H-1,7-phenanthrolin-2-one] it was 0.0036 µM; in that of `Nc1c(-c2ccc(F)c3[nH]ncc23)c2cc(O[C@@H]3CCOC3)c3ncccc3c2[nH]c1=O` [Compound C5, 3-Amino-4-(7-fluoro-1H-indazol-4-yl)-6-[(3R)-oxolan-3-yl]oxy-1H-1,7-phenanthrolin-2-one], 0.0014 µM; in that of `Nc1c(-c2ccc(F)c3[nH]ncc23)c2cc(OC3CCCC3)c3ncccc3c2[nH]c1=O` [Compound C6, 3-Amino-6-cyclopentyloxy-4-(7-fluoro-1H-indazol-4-yl)-1H-1,7-phenanthrolin-2-one], 0.001 µM. Regarding `Nc1c(-c2ccc(F)c3[nH]ncc23)c2cc(OC3CCOCC3)c3ncccc3c2[nH]c1=O` [Compound C7, 3-Amino-4-(7-fluoro-1H-indazol-4-yl)-6-(oxan-4-yloxy)-1H-1,7-phenanthrolin-2-one], the IC50 was 0.0012 µM. Take `Nc1c(-c2ccc(F)c3[nH]ncc23)c2cc(OCC3CCC3)c3ncccc3c2[nH]c1=O` [Compound C9, 3-Amino-6-(cyclobutylmethoxy)-4-(7-fluoro-1H-indazol-4-yl)-1H-1,7-phenanthrolin-2-one]: the IC50 was found to be 0.0032 µM. The compound `CC(C)CCOc1cc2c(-c3ccc(F)c4[nH]ncc34)c(N)c(=O)[nH]c2c2cccnc12` [Compound C10, 3-Amino-4-(7-fluoro-1H-indazol-4-yl)-6-(3-methylbutoxy)-1H-1,7-phenanthrolin-2-one] showed an IC50 of 0.0023 µM. With `Nc1c(-c2ccc(F)c3[nH]ncc23)c2cc(OCC3CC3)c3ncccc3c2[nH]c1=O` [Compound C11, 3-Amino-6-(cyclopropylmethoxy)-4-(7-fluoro-1H-indazol-4-yl)-1H-1,7-phenanthrolin-2-one], the IC50 is 0.0014 µM. For the compound `Nc1c(-c2ccc(F)c3[nH]ncc23)c2cc(O[C@H]3CCOC3)c3ncccc3c2[nH]c1=O` [Compound C12, 3-Amino-4-(7-fluoro-1H-indazol-4-yl)-6-[(3S)-oxolan-3-yl]oxy-1H-1,7-phenanthrolin-2-one], the IC50 amounted to 0.0022 µM. The result for `COCCOc1cc2c(-c3ccc(F)c4[nH]ncc34)c(N)c(=O)[nH]c2c2cccnc12` [Compound C14, 3-Amino-4-(7-fluoro-1H-indazol-4-yl)-6-(2-methoxyethoxy)-1H-1,7-phenanthrolin-2-one] reads 0.0025 µM; that for `Nc1c(-c2ccc(F)c3[nH]ncc23)c2cc(OCC(F)(F)F)c3ncccc3c2[nH]c1=O` [Compound C15, 3-Amino-4-(7-fluoro-1H-indazol-4-yl)-6-(2,2,2-trifluoroethoxy)-1H-1,7-phenanthrolin-2-one], 0.0026 µM; that for `Nc1c(-c2ccc(F)c3[nH]ncc23)c2cc(OCC(F)F)c3ncccc3c2[nH]c1=O` [Compound C16, 3-Amino-6-(2,2-difluoroethoxy)-4-(7-fluoro-1H-indazol-4-yl)-1H-1,7-phenanthrolin-2-one], 0.0011 µM. Turning to `Nc1c(-c2ccc(F)c3[nH]ncc23)c2cc(OC3CCCCC3)c3ncccc3c2[nH]c1=O` [Compound C17, 3-Amino-6-cyclohexyloxy-4-(7-fluoro-1H-indazol-4-yl)-1H-1,7-phenanthrolin-2-one], the IC50 came out at 0.0045 µM. In the case of `Nc1c(-c2ccc(F)c3[nH]ncc23)c2cc(OC3CCC3)c3ncccc3c2[nH]c1=O` [Compound C18, 3-Amino-6-cyclobutyloxy-4-(7-fluoro-1H-indazol-4-yl)-1H-1,7-phenanthrolin-2-one] it was 0.002 µM; in that of `Nc1c(-c2ccc(F)c3[nH]ncc23)c2cc(OCCCF)c3ncccc3c2[nH]c1=O` [Compound C19, 3-Amino-4-(7-fluoro-1H-indazol-4-yl)-6-(3-fluoropropoxy)-1H-1,7-phenanthrolin-2-one], 0.0022 µM.
